Measurements taken from patent publication US10695425B2, “Methods for treating and/or limiting development of diabetes in subjects with amyotrophic lateral sclerosis” (Biocrine AB, priority 2015, dated 2020).

System: αTC1-6 cells
Assay: K+ depolarization-induced [Ca2+]i response in αTC1-6 cells (fura-2)
Format: cell-based, mouse
Conditions: αTC1-6 cells pre-exposed to specific Ca2+ channel blocker
Procedure: A glucose concentration of 11 mM was used for islet stimulation. After loading, islets and cells on the glass coverslips were transferred to an open perifusion chamber maintained at 37° C. and [Ca^2+]i measured as the 340/380 nm ratio. The light source was equipped with a xenon arc lamp and an integrated shutter (Lambda DG-4, Sutter instrument company), and coupled to the microscope (Olympus ix 71) via a liquid light guide. The 16-bit grayscale images with a binning of 1×1 were captured every 1 s (exposure time ranged from 100 to 300 ms) with a cooled EM-CCD camera (ImagEM X2, Hamamatsu). The camera and shutter were controlled by METAFLUOR® (Molecular Devices) software, which was also used for analysis. Cells with bright [Ca^2+]i signal defined the regions of interest (ROIs). ROI signals were calculated by subtracting background noise signal.

## w-agatoxin TK
  blocker-sensitive share of K+ depolarization-induced [Ca2+]i increase: considerable number
